# Results from publication PMC10466336, “Chemical Probe for Imaging of Polo-like Kinase 4 and Centrioles” (JACS Au, 2023).
# Legend:
# HeLa Centrin1-GFP cells = assay: Plk4 foci scoring at different time points of Cen-TCO incubation; type: cell-based, human; conditions: 500 nM
# Experimental: We conjugated trans-cyclooctene to the previously obtained compound (4) to obtain Cen-TCO (3) using the synthetic route outlined in Scheme S2. The resulting Cen-TCO (3) reacted with an appropriate tetrazine, such as SiR650-TetH (4a) (Figure S4A). The reaction was followed by LC-MS, and the data confirmed quantitative conversion of Cen-TCO (3) to the appropriate cycloaddition product Cen-Click-SiR650 (Figure S4A, D). […] To assess the phenotype caused by Cen-TCO (3), we incubated HeLa cells expressing Centrin1-GFP with different concentrations of Cen-TCO (3) for 24 h, followed by scoring of Centrin1-GFP foci numbers (Figure S5B). […] Next, we tested Cen-TCO (3) in combination with different tetrazine partners to determine the optimal combination for our bio-orthogonal strategy. We used four different tetrazines to visualize overexpressed GFP-Plk4(K41M) in HeLa cells following 1 h of incubation with Cen-TCO (500 nM) (Figure S6). […] Furthermore, the high fluorogenicity of HD653 makes it particularly well suited for live cell imaging.[33] Therefore, the combination of Cen-TCO (3) and HD653 (5) was further used for live cell imaging of endogenous Plk4 (Figure 4A). HeLa cells expressing Centrin1-GFP were incubated with 500 nM Cen-TCO (3) for 1 h, followed by a 15 min incubation with 500 nM HD653 (5) and imaged with a confocal microscope without prior washing. Despite the high unspecific background signal, a clear focus could be detected at centrioles (Figure 4B). […] The fwhm of the circular signal in this case was 368 ± 26 (N = 6) (Figure S7B), which corresponds to the size measured with overexpressed GFP-Plk4(K41M) (see Figure 3D), and approximately that of the torus region surrounding the centriole.[40] […] To assess this and test whether early time points after Cen-TCO addition may be immune to this problem, HeLa Centrin1-GFP cells were incubated with Cen-TCO (3) and fixed at different time points thereafter, after which the number of centriolar Plk4 foci per cell was quantified (Figure S8B–F). […]
# [1] = target: T1, endogenous Plk4 in HeLa cells expressing Centrin1-GFP (Homo sapiens, UniProt O00444); assay: Live- and fixed-cell confocal/STED imaging of endogenous Plk4; type: cell-based; conditions: one-step labeling, live cells
# T1 construct: live cell imaging of endogenous Plk4; endogenous in cells; host or cells: HeLa cells stably expressing Centrin1-GFP
# T1 sequence (O00444 1-970): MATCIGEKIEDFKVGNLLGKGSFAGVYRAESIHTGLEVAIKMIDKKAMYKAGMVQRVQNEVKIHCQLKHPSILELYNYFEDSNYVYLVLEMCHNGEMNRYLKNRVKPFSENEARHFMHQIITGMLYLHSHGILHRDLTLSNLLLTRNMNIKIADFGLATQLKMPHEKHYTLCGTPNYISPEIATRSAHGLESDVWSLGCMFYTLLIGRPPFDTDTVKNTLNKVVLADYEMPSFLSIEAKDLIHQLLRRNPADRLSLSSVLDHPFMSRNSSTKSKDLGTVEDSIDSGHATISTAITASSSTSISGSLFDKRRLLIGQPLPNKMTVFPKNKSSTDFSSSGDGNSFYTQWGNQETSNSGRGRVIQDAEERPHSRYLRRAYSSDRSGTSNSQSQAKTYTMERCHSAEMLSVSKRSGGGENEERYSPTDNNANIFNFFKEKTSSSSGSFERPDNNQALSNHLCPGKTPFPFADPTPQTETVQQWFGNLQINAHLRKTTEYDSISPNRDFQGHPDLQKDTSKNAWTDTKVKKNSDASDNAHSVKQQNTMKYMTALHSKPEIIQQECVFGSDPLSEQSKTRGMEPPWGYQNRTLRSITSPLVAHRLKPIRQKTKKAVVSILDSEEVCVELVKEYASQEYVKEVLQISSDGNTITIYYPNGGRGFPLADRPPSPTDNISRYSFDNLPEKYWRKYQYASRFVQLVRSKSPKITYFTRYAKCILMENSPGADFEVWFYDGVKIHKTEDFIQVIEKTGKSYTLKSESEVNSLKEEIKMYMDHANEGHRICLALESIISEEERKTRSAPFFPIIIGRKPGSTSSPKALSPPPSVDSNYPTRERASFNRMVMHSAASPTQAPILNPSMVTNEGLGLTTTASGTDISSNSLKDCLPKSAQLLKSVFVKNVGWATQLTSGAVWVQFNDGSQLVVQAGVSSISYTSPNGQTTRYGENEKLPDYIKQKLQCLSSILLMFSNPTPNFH
Compound,effect on Plk4 foci numbers (HeLa Centrin1-GFP cells; after 1 h of incubation),effect on Plk4 foci numbers around centrioles (HeLa Centrin1-GFP cells; after 4 h),effect on Plk4 foci numbers (HeLa Centrin1-GFP cells; up to 4 h of incubation),labeling of endogenous Plk4 in live HeLa cells [1]
COc1c(Nc2cc(C)[nH]n2)nc(Sc2ccc(S(=O)(=O)Cc3cccc([N+](=O)[O-])c3F)cc2F)nc1N1CCC(CC(=O)NCCNC(=O)OC2CC/C=C/CCC2)CC1 (stereo not shown) [compound 3],no perturbation,significant increase,only minor perturbations,–
COc1c(Nc2cc(C)[nH]n2)nc(Sc2ccc(S(=O)(=O)Cc3cccc([N+](=O)[O-])c3F)cc2F)nc1N1CCC(CC(=O)NCCNC(=O)c2ccc(C(=O)O)c(C3=C4C=CC(=N)C=C4[Si](C)(C)c4cc(N)ccc43)c2)CC1 [2d],–,–,–,failed to observe specific labeling
